This note sets out measurements from ChEMBL document CHEMBL3868623, “Difluorocyclobutylacetylenes as positive allosteric modulators of mGluR5 with reduced bioactivation potential” (Bioorg Med Chem Lett, 2016).

The nature of series [1]: in vitro. Conditions: mouse, liver microsomes.
A short description of series [2]: in vitro. Conditions: human, liver microsomes.

A word on the amount remaining: it is the share of the starting amount still present when the sample was taken. Higher therefore signals greater stability.

Each structure is given as a SMILES string.

Consider `O=C1N[C@H](c2cncc(C#Cc3ccccc3)c2)[C@@H](c2cccc(F)c2)O1`, for which the share remaining at 10 min in “in vitro [1]” was determined as 71%; in the series “in vitro [2]” it was 76%.
Consider `O=C1N[C@H](c2cncc(C#CC3CC(F)(F)C3)c2)[C@@H](c2ccc(F)cc2F)O1`, for which the values for the amount remaining at 10 min in “in vitro [1]” and in the series “in vitro [2]” were 84% and 100%, respectively.
As to `C[C@]1(O)C[C@@H](C#Cc2cncc([C@H]3NC(=O)O[C@@H]3c3cccc(F)c3)c2)C1`, the fraction remaining at 10 min was determined as 81% in “in vitro [1]” and 95% in the series “in vitro [2]”.
For `O=C1N[C@H](c2cncc(C#C[C@H]3C[C@H](F)C3)c2)[C@@H](c2cccc(F)c2)O1`, the share remaining at 10 min in “in vitro [1]” was 37%; in “in vitro [2]” it was 81%.
For `O=C1N[C@H](c2cncc(C#C[C@H]3C[C@@H](F)C3)c2)[C@@H](c2cccc(F)c2)O1` the same measures were 57% and 83%.
On the same counts, the results for `O=C1N[C@H](c2cncc(C#C[C@H]3C[C@H](O)C3)c2)[C@@H](c2cccc(F)c2)O1` are 74% and 100%.
In the case of `O=C1N[C@H](c2cncc(C#C[C@H]3C[C@@H](O)C3)c2)[C@@H](c2cccc(F)c2)O1`, the amount remaining at 10 min in the series “in vitro [1]” was found to be 51%; in “in vitro [2]”, 100%.
For the compound `O=C1N[C@H](c2cncc(C#CC3CCOC3)c2)[C@@H](c2cccc(F)c2)O1` (stereo not given in full), the amount remaining at 10 min in “in vitro [1]” is 63%; in “in vitro [2]” it was 93%.
On the same counts, the results for `C[C@]1(O)C[C@H](C#Cc2cncc([C@H]3NC(=O)O[C@@H]3c3cccc(F)c3)c2)C1` are 78% and 88%.
With `O=C1N[C@H](c2cncc(C#CC3CC3)c2)[C@@H](c2cccc(F)c2)O1`, the fraction remaining at 10 min was found to be 69% in the series “in vitro [1]” and 81% in “in vitro [2]”.
